Results published in US7955596B2 (priority 2003, dated 2011).

Tested on: B. anthracis strain 34F2ΔluxS
Assay type: cell-based

CCCCC1=C(Br)/C(=C/Br)OC1=O [furanone 1, (5Z)-4-bromo-5-(bromomethylene)-3-butyl-2(5H)-furanone]
Growth of the 34F2ΔluxS strain (OD600): dramatically inhibited
Growth inhibitory effect for 34F2ΔluxS relative to wild-type 34F2 (20 μg/ml, 30 hrs): prolonged
